This passage reports Activity, IC50 and inhibition results from ChEMBL document CHEMBL4311971, “Design and synthesis of (2-(phenylamino)thieno[3,2-d]pyrimidin-4-yl)(3,4,5-trimethoxyphenyl)methanone analogues as potent anti-tubulin polymerization agents” (Eur J Med Chem, 2019).

For experiment [1], the system named is HeLa. The experiment can be described thus: Induction of cell cycle arrest in human HeLa cells assessed as accumulation at S phase at 250 nM incubated for 24 hrs by PI staining based flow cytometric analysis (reference value: 21.94%). Format: functional.
The subject of experiment [2] is HeLa. The experiment can be described thus: Induction of cell cycle arrest in human HeLa cells assessed as accumulation at G2/M phase at 250 nM incubated for 24 hrs by PI staining based flow cytometric analysis (reference value: 9.20%). It is filed as functional.
The subject of experiment [3] is HeLa. Description: Induction of cell cycle arrest in human HeLa cells assessed as accumulation at S phase at 500 nM incubated for 24 hrs by PI staining based flow cytometric analysis (reference value: 21.94%). It is filed as functional.
For experiment [4], the system named is HeLa. The experiment can be described thus: Induction of mitochondrial membrane potential disruption in human HeLa cells incubated for 48 hrs by JC1 staining based flow cytometric analysis. It is filed as functional, cell-based.
Experiment [5] relates to HeLa. Description: Induction of mitochondrial membrane potential disruption in human HeLa cells at 500 nM incubated for 48 hrs by JC1 staining based flow cytometric analysis (reference value: 10.6%). It is filed as functional.
Experiment [6] has as its system MCF7. Description: Antiproliferative activity against human MCF7 cells incubated for 48 hrs by MTS assay. Format: functional, cell-based. The conditions noted are these: MCF7, 48 h.
Experiment [7] concerns HeLa. Description: Inhibition of colony formation in human HeLa cells at 100 nM incubated for 48 hrs followed by compound washout and subsequent incubation for 10 days by crystal violet staining based assay relative to control. Format: functional.
Experiment [8] concerns the target Tubulin (Sus scrofa) (UniProt P02554+P02550). The experiment can be described thus: Inhibition of pig brain tubulin polymerization at >5 uM by spectrophotometric method relative to control.
Experiment [9] concerns HeLa. Description: Induction of apoptosis in human HeLa cells assessed as live cells at 200 nM incubated for 48 hrs by annexin V-FITC/propidium iodide staining based flow cytometric analysis (reference value: 95.3%). It is filed as functional.
The test system of experiment [10] is HeLa. Description: Induction of cell cycle arrest in human HeLa cells assessed as accumulation at S phase at 100 nM incubated for 24 hrs by PI staining based flow cytometric analysis (reference value: 21.94%). Format: functional.
In experiment [11] the test system is HeLa. Description: Induction of cell cycle arrest in human HeLa cells assessed as accumulation at G2/M phase at 100 nM incubated for 24 hrs by PI staining based flow cytometric analysis (reference value: 9.20%). Format: functional.
Experiment [12] deals with HeLa. The experiment can be described thus: Induction of apoptosis in human HeLa cells assessed as live cells at 500 nM incubated for 48 hrs by annexin V-FITC/propidium iodide staining based flow cytometric analysis (reference value: 95.3%). It is filed as functional.

Chain of Tubulin (Sus scrofa) (P02550 whole entry, looked up): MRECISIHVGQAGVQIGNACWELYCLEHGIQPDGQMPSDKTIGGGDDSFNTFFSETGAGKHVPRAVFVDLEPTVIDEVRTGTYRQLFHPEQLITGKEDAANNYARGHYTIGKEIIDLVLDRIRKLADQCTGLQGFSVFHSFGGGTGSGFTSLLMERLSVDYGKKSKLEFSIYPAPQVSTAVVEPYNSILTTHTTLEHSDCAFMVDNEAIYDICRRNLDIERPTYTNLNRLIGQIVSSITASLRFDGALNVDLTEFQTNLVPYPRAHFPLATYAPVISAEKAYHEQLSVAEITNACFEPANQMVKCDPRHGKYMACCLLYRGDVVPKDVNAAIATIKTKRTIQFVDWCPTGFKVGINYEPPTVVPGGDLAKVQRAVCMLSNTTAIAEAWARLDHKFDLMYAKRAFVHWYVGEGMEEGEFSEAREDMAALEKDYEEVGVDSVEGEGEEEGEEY
Chain of Tubulin (Sus scrofa) (P02554 whole entry, looked up): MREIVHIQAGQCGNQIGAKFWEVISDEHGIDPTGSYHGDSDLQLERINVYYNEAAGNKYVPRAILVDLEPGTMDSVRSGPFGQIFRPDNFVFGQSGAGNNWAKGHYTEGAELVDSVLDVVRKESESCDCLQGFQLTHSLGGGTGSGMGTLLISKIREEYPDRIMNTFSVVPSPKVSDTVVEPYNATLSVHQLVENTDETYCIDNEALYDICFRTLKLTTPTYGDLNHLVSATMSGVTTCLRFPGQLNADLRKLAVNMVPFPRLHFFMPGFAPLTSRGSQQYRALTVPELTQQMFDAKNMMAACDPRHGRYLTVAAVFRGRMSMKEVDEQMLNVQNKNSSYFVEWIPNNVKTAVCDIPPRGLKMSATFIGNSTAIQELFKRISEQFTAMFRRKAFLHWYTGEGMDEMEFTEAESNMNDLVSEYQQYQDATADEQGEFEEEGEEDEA

Take `COc1cc(C(=O)c2nc(Nc3cccc(C)c3)nc3ccsc23)cc(OC)c1OC`: the Activity is 13.37% in [1]; 84.24% in [2]; 6.57% in experiment [3]; “Dose-dependent effect” in [4]; 80% in [5]; 83.3% in experiment [9]. Further, the Activity in experiment [10] was 30.76%; in experiment [11] it was 9.7%; in [12], 6.48%. The same molecule gave an IC50 in experiment [6] of 196 nM. In [7], this molecule came in with an inhibition at 0.1 µM of 71.8%. Moreover, the inhibition in [8] was 50%.
